Assays:
[1] = Solubilities of rilpivirine hydrochloride in various aqueous media; assay type: physicochemical
[2] = Pre-dose concentrations of DTG and RPV at Weeks 4, 24 and 48 or withdrawal in participants switching to DTG + RPV; assay type: in vivo, human
Experimental: (§1) First set of participants (DTG 50 mg) received DIG 50 mg+RPV 25 mg together once daily, with a meal, in an open-label fashion up to Week 52 during early switch phase. Second set of participants (RPV 25 mg) also received DTG 50 mg+RPV 25 mg together once daily, with a meal, in an open-label fashion up to Week 52 during early switch phase.
(§2) First set of participants (DTG 50 mg) received DTG 50 mg+RPV 25 mg together once daily, with a meal, in an open-label fashion up to Week 52 during early switch phase. Second set of participants (RPV 25 mg) also received DTG 50 mg+RPV 25 mg together once daily, with a meal, in an open-label fashion up to Week 52 during early switch phase.

[3] = Pre-dose concentrations of DTG and RPV at Weeks 2, 4 and 8 in the first 20 participants who switch from EFV or NVP to DTG + RPV; assay type: in vivo, human
Experimental: as §1, §2

Solubility ([1]; 0.01N HCl, pH 2.0, 20° C.): 0.003 g/100 mL
Solubility ([1]; 0.1N HCl, pH 1.1, 20° C.): <0.001 g/100 mL
Solubility ([1]; 0.1N NaOH, pH 12.9, 20° C.): <0.001 g/100 mL
Solubility ([1]; Borate-KCl, pH 8.9, 20° C.): <0.001 g/100 mL
Solubility ([1]; Citrate-HCl, pH 2.0, 20° C.): <0.001 g/100 mL
Solubility ([1]; Citrate-NaOH, pH 5.0, 20° C.): <0.001 g/100 mL
Solubility ([1]; Phosphate Buffer, pH 6.9, 20° C.): <0.001 g/100 mL
Solubility ([1]; Phosphate-NaOH, pH 11.9, 20° C.): <0.001 g/100 mL
Solubility ([1]; Water, solution pH 2.2, 20° C.): 0.001 g/100 mL
Descriptor (solubility) ([1]; aqueous media (Table 16)): practically insoluble
Pre-dose concentration, Mean ± Standard Deviation ([2]; Example 3 (Table 10), Week 4): 92.046 ± 138.2880 µg/L
Pre-dose concentration, Mean ± Standard Deviation ([2]; Example 3 (Table 10), Week 24): 87.875 ± 39.1412 µg/L
Pre-dose concentration, Mean ± Standard Deviation ([2]; Example 3 (Table 10), Week 48): 95.405 ± 48.2978 µg/L
Pre-dose concentration, Mean ± Standard Deviation ([2]; Example 5 (Table 13), Week 4): 79.504 ± 38.2305 µg/L
Pre-dose concentration, Mean ± Standard Deviation ([2]; Example 5 (Table 13), Week 24): 90.207 ± 46.3022 µg/L
Pre-dose concentration, Mean ± Standard Deviation ([2]; Example 5 (Table 13), Week 48): 91.799 ± 47.1371 µg/L
Pre-dose concentration, Mean ± Standard Deviation ([3]; Example 3 (Table 10), Week 2): 65.360 ± 31.2965 µg/L
Pre-dose concentration, Mean ± Standard Deviation ([3]; Example 3 (Table 10), Week 4): 67.374 ± 27.5663 µg/L
Pre-dose concentration, Mean ± Standard Deviation ([3]; Example 3 (Table 10), Week 8): 77.416 ± 37.7129 µg/L
Pre-dose concentration, Mean ± Standard Deviation ([3]; Example 5 (Table 13), Week 2): 57.342 ± 29.5436 µg/L
Pre-dose concentration, Mean ± Standard Deviation ([3]; Example 5 (Table 13), Week 4): 78.338 ± 31.4825 µg/L
Pre-dose concentration, Mean ± Standard Deviation ([3]; Example 5 (Table 13), Week 8): 79.652 ± 40.7546 µg/L
Structure (SMILES): Cc1cc(/C=C/C#N)cc(C)c1Nc1ccnc(Nc2ccc(C#N)cc2)n1.Cl [rilpivirine hydrochloride, 4-[[4-[[4-[(E)-2-cyanoethenyl]-2,6-dimethylphenyl]amino]-2-pyrimidinyl]amino]benzonitrile hydrochloride]
Descriptor (solubility) ([1]; 0.01N HCl, pH 2.0): Practically insoluble (Practically insoluble or Insoluble: Parts of solvent required for 1 part of solute: greater than or equal to 10,000)
Descriptor (solubility) ([1]; 0.1N HCl, pH 1.1): Practically insoluble (Practically insoluble or Insoluble: Parts of solvent required for 1 part of solute: greater than or equal to 10,000)
Descriptor (solubility) ([1]; 0.1N NaOH, pH 12.9): Practically insoluble (Practically insoluble or Insoluble: Parts of solvent required for 1 part of solute: greater than or equal to 10,000)
Descriptor (solubility) ([1]; Borate-KCl, pH 8.9): Practically insoluble (Practically insoluble or Insoluble: Parts of solvent required for 1 part of solute: greater than or equal to 10,000)
Descriptor (solubility) ([1]; Citrate-HCl, pH 2.0): Practically insoluble (Practically insoluble or Insoluble: Parts of solvent required for 1 part of solute: greater than or equal to 10,000)
Descriptor (solubility) ([1]; Citrate-NaOH, pH 5.0): Practically insoluble (Practically insoluble or Insoluble: Parts of solvent required for 1 part of solute: greater than or equal to 10,000)
Descriptor (solubility) ([1]; Phosphate Buffer, pH 6.9): Practically insoluble (Practically insoluble or Insoluble: Parts of solvent required for 1 part of solute: greater than or equal to 10,000)
Descriptor (solubility) ([1]; Phosphate-NaOH, pH 11.9): Practically insoluble (Practically insoluble or Insoluble: Parts of solvent required for 1 part of solute: greater than or equal to 10,000)
Descriptor (solubility) ([1]; Water, solution pH 2.2): Practically insoluble (Practically insoluble or Insoluble: Parts of solvent required for 1 part of solute: greater than or equal to 10,000)

Reference: patent US12011506B2, “Combination and uses and treatments thereof” (priority 2017, dated 2024)
